Assay results from ChEMBL document CHEMBL1136281, “Design and synthesis of novel chrysene-linked pyrrolo[2,1-c][1,4]-benzodiazepine hybrids as potential DNA-binding agents” (Bioorg Med Chem Lett, 2003).

Experiments:
MCF7 = assay: In vitro primary anticancer activity was determined in MCF-7 cell line (breast) at the concentration of […]; format: functional, Homo sapiens
NCI-H460 = assay: In vitro primary anticancer activity was determined in NCI-H460 cell line (Lung) at the concentration of […]; format: functional, Homo sapiens
NCI-H226 = assay: Anticancer activity against one non-small cell lung cancer (NCI-H226 cell line); format: functional; settings: Homo sapiens, read-out: LC50 (the source's name)
SF-268 = assay: In vitro primary anticancer activity was determined in SF-268 cell line (CNS) at the concentration of […]; format: functional, Homo sapiens
UACC-62 = assay: Anticancer activity against one melanoma cancer (UACC-62 cell line); format: functional; settings: Homo sapiens, read-out: LC50 (the source's name)
A498 = assay: Anticancer activity against one renal cancer (A498 cell line); format: functional; settings: Homo sapiens, read-out: LC50 (the source's name)
PC-6 = assay: In vitro cytotoxicity was evaluated in PC6 cell line; format: functional, cell-based; settings: Homo sapiens

SMILES | Growth (MCF7) [%] | Growth (NCI-H460) [%] | CC50 (NCI-H226) [µM] | Growth (SF-268) [%] | CC50 (UACC-62) [µM] | CC50 (A498) [µM] | IC50 (PC-6) [µM]
COc1cc2c(cc1OCCCCC(=O)Nc1cc3c4ccccc4ccc3c3ccccc13)N=C[C@@H]1CCCN1C2=O | 1 | 0 | 4.5 | 12 | 4.07 | 6.29 | 
COc1cc2c(cc1O)N=C[C@@H]1CCCN1C2=O |  |  |  |  |  |  | 0.33
COc1cc2c(cc1OCCCC(=O)Nc1cc3c4ccccc4ccc3c3ccccc13)N=C[C@@H]1CCCN1C2=O | 56 | 105 |  | 121 |  |  | 
